As a reminder, the IC50 is the concentration at which inhibition is half-maximal. As a reminder, the EC50 is the midpoint of the concentration-response curve.

Some results are limits rather than exact numbers.

Drawing on patent publication US20160002204A1 (Board of Regents, The University of Texas System, priority 2014, published 2016), this text covers IC50 and EC50 for 21 compounds.

Experiment [1] concerns the target T1, GLS1 (purified recombinant human GAC) (Homo sapiens, UniProt O94925).
T1 sequence (O94925 55-598 isoform O94925-3 limits assumed): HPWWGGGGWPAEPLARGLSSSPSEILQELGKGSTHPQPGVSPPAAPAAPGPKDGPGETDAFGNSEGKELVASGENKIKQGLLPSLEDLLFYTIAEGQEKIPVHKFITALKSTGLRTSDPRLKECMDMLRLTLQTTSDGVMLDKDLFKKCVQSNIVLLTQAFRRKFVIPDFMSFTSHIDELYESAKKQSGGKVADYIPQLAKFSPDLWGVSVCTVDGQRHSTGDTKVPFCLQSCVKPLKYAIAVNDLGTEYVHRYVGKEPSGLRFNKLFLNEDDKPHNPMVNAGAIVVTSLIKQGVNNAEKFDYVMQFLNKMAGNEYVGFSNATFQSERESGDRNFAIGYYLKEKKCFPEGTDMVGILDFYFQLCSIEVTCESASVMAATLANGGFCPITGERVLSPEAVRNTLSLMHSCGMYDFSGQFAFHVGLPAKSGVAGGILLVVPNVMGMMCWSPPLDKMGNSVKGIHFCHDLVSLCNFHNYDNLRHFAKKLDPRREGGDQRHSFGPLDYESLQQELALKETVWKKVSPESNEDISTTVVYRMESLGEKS
Put plainly: GLS1 enzymatic activity assay (dual-coupled, Amplex UltraRed/resorufin). It counts as biochemical. In outline: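 In this coupled fluorometric format, phosphate-activated GAC (2 nM, 50 mM phosphate) is pre-exposed to compound for 10 min before 1 mM glutamine addition. Product is tracked as resorufin (530/590 nm) over time or at 20 min, and potency is derived by logistic fitting.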

The test system of the next experiment is A549 cells. Nature of the experiment: A549 proliferation (viability) assay, Cell Titer Fluor, 72 hours. Type of experiment: cell-based. The settings on record: Homo sapiens. Summed up:
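Compound exposure lasted 72 h (final DMSO 0.5% v/v) on A549 cells plated at 1000 cells/well one day earlier. Cell Titer Fluor added, 30 min at 37 °C, fluorescence read; EC50 derived by four-parameter logistic curve fitting.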

Turning to `CC(C)OC(=O)Nc1ccn(CCCCc2ccc(NC(=O)Cc3ccccc3)nn2)c(=O)n1` [Example 94, propan-2-yl N-(2-oxo-1-{4-[6-(2-phenylacetamido)pyridazin-3-yl]butyl}-1,2-dihydropyrimidin-4-yl)carbamate], the IC50 in experiment [1] is under 0.1 µM. The EC50 in the experiment with A549 cells was in the range of 0.1 to 0.5 µM.

As for `O=C(Nc1ccn(CCC(F)Cn2cc(C(=O)NCc3cccc(OC(F)(F)F)c3)nn2)c(=O)c1F)C(=O)N1CCCC(C(F)(F)F)C1` (stereo not drawn) [Example 419, 1-[2-fluoro-4-(3-fluoro-2-oxo-4-{2-oxo-2-[3-(trifluoromethyl)piperidin-1-yl]acetamido}-1,2-dihydropyridin-1-yl)butyl]-N-{[3-(trifluoromethoxy)phenyl]methyl}-1H-1,2,3-triazole-4-carboxamide], the IC50 in experiment [1] was under 0.1 µM. In the experiment on A549 cells, this compound yielded an EC50 of under 0.1 µM.

Consider `O=C(CC1CCCCC1)Nc1ccn(CCCCn2cc(C(=O)NCc3cccnc3)nn2)c(=O)c1` [Example 191, 1-{4-[4-(2-cyclohexylacetamido)-2-oxo-1,2-dihydropyridin-1-yl]butyl}-N-(pyridin-3-ylmethyl)-1H-1,2,3-triazole-4-carboxamide], for which the IC50 in experiment [1] was under 0.1 µM. The same compound displayed an EC50 in the experiment with A549 cells of 0.1 to 0.5 µM.

In the case of `O=C(CC1CCNCC1)Nc1ccn(CCC(F)Cn2cc(C(=O)NCc3cccc(OC(F)(F)F)c3)nn2)c(=O)c1` (stereo not drawn) [Example 280, 1-(2-fluoro-4-{2-oxo-4-[2-(piperidin-4-yl)acetamido]-1,2-dihydropyridin-1-yl}butyl)-N-{[3-(trifluoromethoxy)phenyl]methyl}-1H-1,2,3-triazole-4-carboxamide], the IC50 in experiment [1] was 0.1 to 0.5 µM. For the same compound, in the experiment with A549 cells, the EC50 fell in the range of 0.5 to 5 µM.

Take `O=C(Cc1ccc(Cl)nc1)Nc1ccn(CCC(F)Cn2cc(C(=O)NCc3cccc(OC(F)(F)F)c3)nn2)c(=O)c1` (stereo not drawn) [Example 238, 1-(4-{4-[2-(6-chloropyridin-3-yl)acetamido]-2-oxo-1,2-dihydropyridin-1-yl}-2-fluorobutyl)-N-{[3-(trifluoromethoxy)phenyl]methyl}-1H-1,2,3-triazole-4-carboxamide]: in experiment [1], the IC50 was under 0.1 µM. Further, the EC50 in the experiment on A549 cells lay within 0.1 to 0.5 µM.

On to `CCOC(=O)N1CCC(CC(=O)Nc2ccn(CCC(F)Cn3cc(C(=O)NCc4cncc(C(F)(F)F)c4)nn3)c(=O)c2F)CC1` (stereo not drawn) [Example 363, ethyl 4-{[(3-fluoro-1-{3-fluoro-4-[4-({[5-(trifluoromethyl)pyridin-3-yl]methyl}carbamoyl)-1H-1,2,3-triazol-1-yl]butyl}-2-oxo-1,2-dihydropyridin-4-yl)carbamoyl]methyl}piperidine-1-carboxylate], for which the IC50 in experiment [1] is under 0.1 µM. Besides, the EC50 with A549 cells was under 0.1 µM.

For `CC(C)(C)OC(=O)N[C@H]1CCC[C@H](C(=O)Nc2ccn(CCCCn3cc(C(=O)NCc4cccc(OC(F)(F)F)c4)nn3)c(=O)c2)C1` [Example 211, tert-butyl N-[(1S,3S)-3-[(2-oxo-1-{4-[4-({[3-(trifluoro-methoxy)phenyl]methyl}carbamoyl)-1H-1,2,3-triazol-1-yl]butyl}-1,2-dihydropyridin-4-yl)carbamoyl]cyclohexyl]carbamate], the IC50 in experiment [1] was under 0.1 µM. This compound also had an EC50 with A549 cells of 0.1 to 0.5 µM.

In the case of `CC(C)(C)OC(=O)N1CCN(CC(=O)Nc2ccn(CCC(F)Cn3cc(C(=O)NCC4CCCC4)nn3)c(=O)c2)CC1` (stereo not drawn) [Example 405, tert-butyl 4-({[1-(4-{4-[(cyclopentylmethyl)carbamoyl]-1H-1,2,3-triazol-1-yl}-3-fluorobutyl)-2-oxo-1,2-dihydropyridin-4-yl]carbamoyl}methyl)piperazine-1-carboxylate], in experiment [1], the IC50 was 0.1 to 0.5 µM. The EC50 in the experiment with A549 cells was in the range of 0.1 to 0.5 µM.

With `O=C(Cc1ccccc1)Nc1ccn(CCCCc2nnc(NC(=O)NCc3ccccc3)s2)c(=O)c1F` [Example 129, N-(1-(4-(5-(3-benzylureido)-1,3,4-thiadiazol-2-yl)butyl)-3-fluoro-2-oxo-1,2-dihydropyridin-4-yl)-2-phenylacetamide], the IC50 in experiment [1] was under 0.1 µM. This compound displayed an EC50 in the experiment with A549 cells of 0.5 to 5 µM.

As to `O=C(NCc1cccc(OC(F)(F)F)c1)c1cn(CC(F)CCn2ccc(COc3ccc(F)cc3F)cc2=O)nn1` (stereo not drawn) [Example 478, 1-{4-[4-(2,4-difluorophenoxymethyl)-2-oxo-1,2-dihydropyridin-1-yl]-2-fluorobutyl}-N-{[3-(trifluoromethoxy)phenyl]methyl}-1H-1,2,3-triazole-4-carboxamide], in experiment [1], the IC50 was under 0.1 µM. Further, in the experiment with A549 cells, the EC50 lay in the range of 0.1 to 0.5 µM.

`O=C(CN1CCCC(CO)C1)Nc1ccn(CCC(F)Cn2cc(C(=O)NCc3cccc(OC(F)(F)F)c3)nn2)c(=O)c1` (stereo not drawn) [Example 257, 1-[2-fluoro-4-(4-{2-[3-(hydroxymethyl)piperidin-1-yl]acetamido}-2-oxo-1,2-dihydropyridin-1-yl)butyl]-N-{[3-(trifluoromethoxy)phenyl]methyl}-1H-1,2,3-triazole-4-carboxamide]: the concentration for half-maximal inhibition (IC50) in experiment [1] is under 0.1 µM. The EC50 with A549 cells fell in the range of 0.5 to 5 µM.

As to `O=C(CC1CCCCC1)Nc1ccn(CCC(F)Cn2cc(C(=O)NCc3cc(C(F)(F)F)ccn3)nn2)c(=O)c1F` (stereo not drawn) [Example 258, 1-{4-[4-(2-cyclohexylacetamido)-3-fluoro-2-oxo-1,2-dihydropyridin-1-yl]-2-fluorobutyl}-N-{[4-(trifluoromethyl)pyridin-2-yl]methyl}-1H-1,2,3-triazole-4-carboxamide], in experiment [1], the IC50 was under 0.1 µM. In addition, the EC50 in the experiment on A549 cells is under 0.1 µM.

In the case of `Cc1ccc(CNC(=O)c2cn(CCCCn3ccc(NC(=O)C4CCCC4)cc3=O)nn2)cn1` [Example 159, 1-[4-(4-cyclopentaneamido-2-oxo-1,2-dihydropyridin-1-yl)butyl]-N-[(6-methylpyridin-3-yl)methyl]-1H-1,2,3-triazole-4-carboxamide], in experiment [1], the IC50 lay within 0.1 to 0.5 µM. The compound also returned an EC50 in the experiment on A549 cells of 0.5 to 5 µM.

In the case of `O=C(CC1CCCCC1)Nc1ccn(CCCCn2cc(C(=O)NCc3ccccn3)nn2)c(=O)c1` [Example 190, 1-{4-[4-(2-cyclohexylacetamido)-2-oxo-1,2-dihydropyridin-1-yl]butyl}-N-(pyridin-2-ylmethyl)-1H-1,2,3-triazole-4-carboxamide], in experiment [1], the IC50 was under 0.1 µM. This compound registered an EC50 in the experiment on A549 cells of 0.5 to 5 µM.

For the compound `O=C(CC1CCCCC1)Nc1ccn(CCC(F)Cn2cc(C(=O)NCc3cncc(C(F)(F)F)c3)nn2)c(=O)c1F` (stereo not drawn) [Example 259, 1-{4-[4-(2-cyclohexylacetamido)-3-fluoro-2-oxo-1,2-dihydropyridin-1-yl]-2-fluorobutyl}-N-{[5-(trifluoromethyl)pyridin-3-yl]methyl}-1H-1,2,3-triazole-4-carboxamide], the IC50 in experiment [1] was under 0.1 µM. This compound also returned an EC50 with A549 cells of under 0.1 µM.

Consider `O=C(Cc1cccc(OC(F)(F)F)c1)Nc1ccc(CCCCn2ccc(NC(=O)CCN3CCCC3)nc2=O)nn1` [Example 109, N-{2-oxo-1-[4-(6-{2-[3-(trifluoromethoxy)phenyl]acetamido}pyridazin-3-yl)butyl]-1,2-dihydropyrimidin-4-yl}-3-(pyrrolidin-1-yl)propanamide], for which the IC50 in experiment [1] lay within 0.1 to 0.5 µM. Further, in the experiment on A549 cells, the EC50 lay in the range of 0.5 to 5 µM.

`O=C(NCc1cccc(OC(F)(F)F)c1)c1cn(CC(F)CCn2ccc(COc3cccc(F)c3)cc2=O)nn1` (stereo not drawn) [Example 472, 1-{2-fluoro-4-[4-(3-fluorophenoxymethyl)-2-oxo-1,2-dihydropyridin-1-yl]butyl}-N-{[3-(trifluoromethoxy)phenyl]methyl}-1H-1,2,3-triazole-4-carboxamide]: in experiment [1], the IC50 is under 0.1 µM. Further, in the experiment with A549 cells, the EC50 was 0.1 to 0.5 µM.

Regarding `O=C(CC1CCCCC1)Nc1ccn(CCCCc2nnc(C(=O)NCc3ccccn3)s2)c(=O)c1` [Example 447, 5-{4-[4-(2-cyclohexylacetamido)-2-oxo-1,2-dihydropyridin-1-yl]butyl}-N-(pyridin-2-ylmethyl)-1,3,4-thiadiazole-2-carboxamide], in experiment [1], the IC50 is under 0.1 µM. Besides, the EC50 with A549 cells is under 0.1 µM.

Take `O=C(CC1CCCCO1)Nc1ccn(CCC(F)Cn2cc(C(=O)NCc3cccc(OC(F)(F)F)c3)nn2)c(=O)c1` (stereo not drawn) [Example 187, 1-(2-fluoro-4-{4-[2-(oxan-2-yl)acetamido]-2-oxo-1,2-dihydropyridin-1-yl}butyl)-N-{[3-(trifluoromethoxy)phenyl]methyl}-1H-1,2,3-triazole-4-carboxamide]: the IC50 in experiment [1] was under 0.1 µM. Also, the EC50 with A549 cells is under 0.1 µM.

As for `Cc1cccc(CNC(=O)c2cn(CC(F)CCn3ccc(NC(=O)Cc4ccccc4)cc3=O)nn2)n1` (stereo not drawn) [Example 165, 1-{2-fluoro-4-[2-oxo-4-(2-phenylacetamido)-1,2-dihydropyridin-1-yl]butyl}-N-[(6-methylpyridin-2-yl)methyl]-1H-1,2,3-triazole-4-carboxamide], the IC50 in experiment [1] is under 0.1 µM. Also, the EC50 with A549 cells lay within 0.5 to 5 µM.

Take `O=C(CC1CCCC1)Nc1ccn(CCCCc2nnc(NC(=O)NCc3cccc(C(F)(F)F)c3)s2)c(=O)c1F` [Example 133, 2-cyclopentyl-N-(3-fluoro-2-oxo-1-(4-(5-(3-(3-(trifluoromethyl)benzyl)ureido)-1,3,4-thiadiazol-2-yl)butyl)-1,2-dihydropyridin-4-yl)acetamide]: the IC50 in experiment [1] was under 0.1 µM. For the same compound, the EC50 in the experiment on A549 cells was in the range of 0.1 to 0.5 µM.
